Measured values taken from ChEMBL document CHEMBL1135660, “Design, synthesis, and tripeptidyl peptidase II inhibitory activity of a novel series of (S)-2,3-dihydro-2-(4-alkyl-1H-imidazol-2-yl)-1H-indoles” (J Med Chem, 2002).

target: Tripeptidyl-peptidase 2 (Rattus norvegicus, UniProt Q64560); assay: Inhibitory activity against tripeptidyl peptidase II purified from rat liver
Sequence (Q64560 whole entry): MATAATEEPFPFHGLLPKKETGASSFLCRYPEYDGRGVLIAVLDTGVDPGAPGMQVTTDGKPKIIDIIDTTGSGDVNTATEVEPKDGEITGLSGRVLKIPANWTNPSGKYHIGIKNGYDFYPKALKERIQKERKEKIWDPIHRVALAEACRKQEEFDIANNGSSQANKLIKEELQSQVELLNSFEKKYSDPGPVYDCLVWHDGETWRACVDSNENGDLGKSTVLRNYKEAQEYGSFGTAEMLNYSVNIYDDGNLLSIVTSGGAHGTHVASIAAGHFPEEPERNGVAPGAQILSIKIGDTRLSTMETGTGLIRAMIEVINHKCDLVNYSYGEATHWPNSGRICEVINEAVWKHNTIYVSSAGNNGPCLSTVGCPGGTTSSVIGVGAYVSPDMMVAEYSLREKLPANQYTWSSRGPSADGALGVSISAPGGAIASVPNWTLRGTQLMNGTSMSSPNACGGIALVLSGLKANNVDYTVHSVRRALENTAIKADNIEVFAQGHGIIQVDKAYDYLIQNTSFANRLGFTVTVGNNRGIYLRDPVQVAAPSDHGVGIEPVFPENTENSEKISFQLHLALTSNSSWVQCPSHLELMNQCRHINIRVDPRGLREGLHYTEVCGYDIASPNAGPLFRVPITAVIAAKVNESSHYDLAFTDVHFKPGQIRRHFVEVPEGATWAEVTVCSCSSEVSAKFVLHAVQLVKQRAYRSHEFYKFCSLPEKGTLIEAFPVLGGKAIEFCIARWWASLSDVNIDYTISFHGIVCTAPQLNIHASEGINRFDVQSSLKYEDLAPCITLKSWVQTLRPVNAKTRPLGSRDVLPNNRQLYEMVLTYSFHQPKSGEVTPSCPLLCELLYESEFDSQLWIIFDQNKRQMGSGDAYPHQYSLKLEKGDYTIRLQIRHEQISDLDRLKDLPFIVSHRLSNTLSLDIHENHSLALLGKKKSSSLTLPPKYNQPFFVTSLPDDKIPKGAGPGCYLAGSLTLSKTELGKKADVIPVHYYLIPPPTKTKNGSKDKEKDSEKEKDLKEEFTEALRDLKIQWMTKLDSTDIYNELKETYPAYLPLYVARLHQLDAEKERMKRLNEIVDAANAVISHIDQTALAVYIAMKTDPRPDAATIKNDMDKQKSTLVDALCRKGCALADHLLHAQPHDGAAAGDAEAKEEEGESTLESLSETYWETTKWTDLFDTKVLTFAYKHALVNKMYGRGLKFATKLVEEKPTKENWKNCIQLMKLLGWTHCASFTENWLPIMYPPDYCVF

Row | SMILES | IC50
1 | CCCc1cnc([C@@H]2Cc3ccccc3N2C(C)=O)[nH]1 | > 10 µM
2 | CC[C@H](N)C(=O)N1c2ccccc2C[C@H]1c1ncc(C)[nH]1 | 0.023 µM
3 | CCc1c[nH]c([C@@H]2Cc3ccccc3N2C(=O)[C@H](C)N)n1 | > 10 µM
4 | CC[C@@H]1NC(=O)[C@@H]2Cc3ccccc3N2C1=O | > 10 µM
